Source: patent US10028992B2, “Methods of treating muscular dystrophy” (BOARD OF REGENTS OF THE NEVADA SYSTEM OF HIGHER EDUCATION …, priority 2012, dated 2018)

Test system: α7 integrin promoter
Test: muscle cell-based assay: α7βgal+/− myoblasts/myotubes, LacZ reporter, β-galactosidase cleavage of FDG
Design: species or system mouse
Conditions: Myotubes; for Results in a α7+/− β-galactosidase assay, Myotubes, 0.5 uM: compound at 0.5 uM; for Results in a α7+/− β-galactosidase assay, Myotubes, 1 uM: compound at 1 uM; for Results in a α7+/− β-galactosidase assay, Myotubes, 5 uM: compound at 5 uM; for Results in a α7+/− β-galactosidase assay, Myotubes, 10 uM: compound at 10 uM; for Results in a α7+/− β-galactosidase assay, Myotubes, 20 uM: compound at 20 uM; for Results in a α7+/− β-galactosidase assay, Myotubes, 40 uM: compound at 40 uM
In short: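 Primary α7βgal+/− mouse myoblasts (LacZ knocked into α7 integrin exon 1, promoter retained), differentiated; promoter activity read as β-galactosidase conversion of non-fluorescent FDG to fluorescein. Hits followed by dose-response, western analysis and myostatin counterscreen.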

SMILES | Results in a α7+/− β-galactosidase assay, Myotubes, 0.5 uM | Results in a α7+/− β-galactosidase assay, Myotubes, 1 uM | Results in a α7+/− β-galactosidase assay, Myotubes, 5 uM | Results in a α7+/− β-galactosidase assay, Myotubes, 10 uM | Results in a α7+/− β-galactosidase assay, Myotubes, 20 uM | Results in a α7+/− β-galactosidase assay, Myotubes, 40 uM
c1ccc(-c2nn[nH]n2)nc1 [drawing 408] | −0.05084 | −0.03177 | −0.024 | −0.07161 | 0.03157 | 0.04635
O=C(N/N=C/c1c[nH]c2ccccc12)c1cc(Cl)ccc1O [drawing 409] | −0.05672 | −0.09286 | 0.2441 | −0.1364 | 0.01214 | −0.2587
O=C(O)C(Cc1ccc(O)cc1)N1C(=O)c2ccccc2C1=O (stereo not drawn) [drawing 411] | 0.0905 | 0.1588 | 0.2927 | −0.09211 | 0.2266 | 0.06733
CCN(CC)C(=O)c1sc2nc(-c3ccc(OC)cc3)cn2c1C [drawing 412] | 0.08584 | 0.05066 | 0.1198 | −0.03387 | −0.01472 | −0.1357
Cc1ccsc1-c1nnc(S)n1C1CCCCC1 [drawing 413] | 0.2221 | 0.09759 | 0.1567 | −0.1231 | 0.1272 | −0.178
O=C(N[C@@H](Cc1c[nH]c2ccccc12)C(=O)O)C1CCN(S(=O)(=O)c2cccs2)CC1 [drawing 414] | 0.08394 | 0.03833 | 0.03594 | −0.09429 | 0.01148 | −0.09282
COC(=O)Cn1c(=O)c2c(nc3n2CC(C)CN3Cc2ccccc2)n(C)c1=O (stereo not drawn) [drawing 415] | 0.05467 | 0.04855 | −0.1372 | −0.2301 | 0.01742 | −0.09631
CCOC(=O)c1cc(C(=O)OCC)c(SCc2ccccc2)nc1O [drawing 416] | −0.05564 | −0.06589 | 0.2144 | −0.09676 | −0.147 | −0.37
Oc1nc2ccccc2nc1-c1c[nH]c2ccccc12 [drawing 417] | −0.06072 | −0.2204 | −0.08742 | 0.05064 | −0.4132 | −0.2613
O=C(Nc1cc(-c2nc3ccccc3s2)ccc1Cl)c1ccc2c(c1)OCO2 [drawing 418] | 0.01013 | −0.09877 | 0.05089 | 0.3348 | −0.3294 | −0.3941
Cn1c(-c2ccccc2)cc2ccccc21 [drawing 419] | −0.1946 | −0.1516 | 0.03646 | 0.2623 | −0.2495 | −0.1512
COc1ccc(C(=O)/C=C2\C(=O)Nc3ccccc32)cc1OC [drawing 420] | −0.03323 | −0.07984 | 0.02829 | 0.263 | −0.3062 | −0.184
CC(C(=O)Nc1ccc(C#N)cc1)N(C)CC(=O)Nc1cccc(F)c1 (stereo not drawn) [drawing 421] | 0.03075 | −0.03964 | −0.1345 | 0.2992 | −0.138 | 0.2085
CC(C(=O)Nc1ccc(C#N)cc1)N(C)CC(=O)Nc1cccc(F)c1 (stereo not drawn) [drawing 422] | −0.07067 | −0.1638 | 0.1526 | 0.4825 | −0.1663 | 0.2317
CC1Cc2ccccc2N1C(=O)CSc1nnc(N)s1 (stereo not drawn) [drawing 423] | −0.03474 | −0.1188 | −0.01338 | 0.3723 | −0.1603 | 0.2399
CC(C)(C)NC(=O)NC(=O)CN1CCN(Cc2ccccc2)CC1 [drawing 424] | 0.003071 | −0.04272 | 0.04658 | 0.4408 | −0.2165 | 0.07828
COc1cc(C=O)ccc1OCC(=O)Nc1ccc2c(c1)OCO2 [drawing 425] | −0.1155 | −0.1633 | 0.1998 | 0.4511 | −0.2886 | 0.003215
Cc1ccccc1NC(=O)c1ccc2c(O)c(Sc3ccccc3)c(=O)[nH]c2c1 [drawing 426] | −0.06746 | −0.07688 | −0.09733 | 0.01498 | −0.07909 | −0.1428
Oc1nc(SCc2ccc(Cl)cc2)nc2ccsc12 [drawing 427] | 0.03102 | −0.01338 | −0.1454 | 0.05532 | −0.03447 | −0.1688
CCn1c(=O)c2cc(C(=O)N(C)c3cc(C)ccc3OC)sc2c2ccccc21 [drawing 428] | −0.1274 | −0.01854 | −0.1965 | −0.1001 | −0.31 | −0.8047
CCOC(=O)C1=C(NC(=O)c2ccc(OC)c(S(=O)(=O)N3CCCCC3C)c2)Nc2ccccc2N=C1CC (stereo not drawn) [drawing 429] | −0.08852 | 0.05126 | −0.2482 | −0.1853 | −0.1051 | −0.1944
